Results taken from PubChem BioAssay AID651729 (NMMLSC, 2012).

system: AM2.2 cells FAP-GPR32, fluorogen binding, flow cytometry MCF; experiment: fluorogen binding to FAP-tagged GPR32, dose response, counter-screen for beta2AR agonist internalization project, AM2.2 cells, flow cytometry, powder set 2 (AID 651729)

| SMILES | EC50 |
| --- | --- |
| CCOC(=O)c1ccc(NC(=O)Cn2nnc(-c3ccccc3)n2)cc1 | 134 nM |
| CN(CC(=O)N1CCN(c2ccccn2)CC1)S(=O)(=O)c1ccc(Cl)cc1 | 5.23 nM |
| CC(=O)Nc1ccc(S(=O)(=O)NCCc2csc(-c3cccnc3)n2)cc1 | 11 nM |
| CCOC(=O)c1ccc(NC(=O)COc2ccc(S(=O)(=O)N3CCCC3)cc2)cc1 | 124 nM |
